Test results published in US20070027130A1, “Tricyclic 6-alkylidene-penem beta-lactamase inhibitors and beta-lactam antibiotic combination: a broad spectrum antibiotic” (priority 2005, published 2007).

Assays:
Experiment in all cases: β-Lactamase inhibition, nitrocefin spectrophotometric assay
[1] = biological target: class A β-lactamase TEM-1 (Escherichia coli, UniProt P62593); assay type: biochemical, E. coli; settings: nitrocefin 50 μg/ml; 10 min preincubation at 25° C.; pH 7.0
class B enzyme CcrA = class B enzyme CcrA (Bacteroides fragilis, UniProt P25910); assay type: biochemical; settings: nitrocefin 50 μg/ml; 10 min preincubation at 25° C.; pH 7.0; read-out: IC50 Class-B Ccr
class C enzyme AmpC = class C enzyme AmpC (Enterobacter cloacae, UniProt P05364); assay type: biochemical
[2] = biological target: class A β-lactamase Imi-1 (Enterobacter cloacae, UniProt Q46991)
Sequence of class A β-lactamase Imi-1 (Q46991 entry or part of it): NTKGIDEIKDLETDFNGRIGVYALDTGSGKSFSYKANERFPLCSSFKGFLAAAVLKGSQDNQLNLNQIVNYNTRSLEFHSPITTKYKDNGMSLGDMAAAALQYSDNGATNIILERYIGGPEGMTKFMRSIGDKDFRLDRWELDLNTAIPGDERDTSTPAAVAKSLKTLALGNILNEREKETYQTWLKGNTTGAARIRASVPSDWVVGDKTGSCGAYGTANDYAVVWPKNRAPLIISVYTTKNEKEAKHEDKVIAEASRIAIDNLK

Sequence of class B enzyme CcrA (P25910 19-249): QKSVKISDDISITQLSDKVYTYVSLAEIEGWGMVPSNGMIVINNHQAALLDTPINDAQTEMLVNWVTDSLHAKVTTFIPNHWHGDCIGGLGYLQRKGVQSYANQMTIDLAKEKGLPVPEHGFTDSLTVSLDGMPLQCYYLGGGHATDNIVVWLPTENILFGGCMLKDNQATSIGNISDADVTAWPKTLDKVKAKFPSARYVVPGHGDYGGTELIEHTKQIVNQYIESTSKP
Sequence of class C enzyme AmpC (P05364 21-381): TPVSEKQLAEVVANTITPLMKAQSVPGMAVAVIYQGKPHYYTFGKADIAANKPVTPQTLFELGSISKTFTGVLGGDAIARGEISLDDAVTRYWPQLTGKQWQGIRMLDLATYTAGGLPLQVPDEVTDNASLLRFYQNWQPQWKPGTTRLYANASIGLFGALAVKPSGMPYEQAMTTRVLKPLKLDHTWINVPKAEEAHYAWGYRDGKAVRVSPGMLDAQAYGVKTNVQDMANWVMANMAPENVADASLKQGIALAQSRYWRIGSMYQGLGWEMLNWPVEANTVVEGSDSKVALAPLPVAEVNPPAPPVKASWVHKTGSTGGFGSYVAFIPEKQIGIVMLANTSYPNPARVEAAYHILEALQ
Sequence of class A β-lactamase TEM-1 (P62593 24-286 limits assumed): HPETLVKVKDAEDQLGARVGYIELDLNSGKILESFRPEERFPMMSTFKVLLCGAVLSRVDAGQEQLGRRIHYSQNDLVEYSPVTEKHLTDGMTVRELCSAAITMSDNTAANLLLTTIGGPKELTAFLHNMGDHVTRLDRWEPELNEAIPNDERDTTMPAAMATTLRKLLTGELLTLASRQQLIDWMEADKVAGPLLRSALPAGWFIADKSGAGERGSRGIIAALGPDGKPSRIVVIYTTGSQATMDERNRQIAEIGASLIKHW

| SMILES | IC50 [1] [nM] | IC50 (class B enzyme CcrA) [nM] | IC50 (class C enzyme AmpC) [nM] | IC50 [2] [nM] |
| --- | --- | --- | --- | --- |
| O=C(O)C1=CS[C@@H]2/C(=C\c3cn4c5c(sc4n3)CCC5)C(=O)N12 [Compound 1, (5R),(6Z)-6-(6,7-dihydro-5H-cyclopenta[d]imidazo[2,1-b][1,3]thiazol-2-ylmethylene)-7-oxo-4-thia-1-azabicyclo[3.2.0]hept-2-ene-2-carboxylic acid] | 1.4 | 240 | 2.4 |  |
| O=C(O)C1=CS[C@@H]2/C(=C\c3cn4c5c(sc4n3)COCC5)C(=O)N12 [Compound 2, (5R),(6Z)-6-(5,8-dihydro-6H-imidazo[2,1-b]pyrano[4,3-d][1,3]thiazol-2-ylmethylene)-7-oxo-4-thia-1-azabicyclo[3.2.0]hept-2-ene-2-carboxylic acid] | 2.8 | 200 | 1.5 | 100 |
